pIC50: −log10 of the molar value. Values joined by “and” are separate entries in the source; they are usually repeats but may differ in a detail not shown here. Identical values can stand only once.
How the values were obtained:
[1] = test system: BPMC derived from human healthy volunteers; assay: Chemokines in supernatant of PBMC from healthy volunteers stimulated with CpG or anti-IgM (summary statement); format: cell-based
Text: Phosphorylated Akt (pAkt) is a downstream effector of PI3K delta activation. 1-{(S)-3-[6-(6-Methoxy-5-trifluoromethyl-pyridin-3-yl)-5,6,7,8-tetrahydro-pyrido[4,3-d]pyrimidin-4-ylamino]-pyrrolidin-1-yl}-propan-1-one or pharmaceutically acceptable salts thereof is a PI3K inhibitor with a selectivity for the PI3K delta isoform (WO2012/004299). […] 1) Chronic B-cell hyperactivity is a consistent and prominent immunoregulatory abnormality in pSS (Hansen A et al, Arthritis Research & Therapy 2007; 9; 218). […] 1-{(S)-3-[6-(6-Methoxy-5-trifluoromethyl-pyridin-3-yl)-5,6,7,8-tetrahydro-pyrido[4,3-d]pyrimidin-4-ylamino]-pyrrolidin-1-yl}-propan-1-one or pharmaceutically acceptable salts thereof inhibits CXCL13 (BCA-1, BLC), but also of CXCL10 (IP-10) and CCL4 (MIP-1beta) in supernatant of BPMC derived from human healthy volunteers stimulated with CpG or anti-IgM. • 3) Characteristic features in pSS include the formation of ectopic lymphoid tissue with germinal center (GC)-like structures. In healthy individuals, GCs are generated from primary B-cell follicles of secondary lymphoid organs during T-cell-dependent immune responses (Hansen A et al, Arthritis Research & Therapy 2007; 9; 218).

[2] = test system: Human Peripheral Blood Mononuclear Cells (PBMC); assay: TLR9 ligand-induced CXCL13 production of human PBMC; format: cell-based; conditions: ODN stimulus; for CXCL13 in culture supernatant: individual donors 1-6; for CXCL13 in culture supernatant, mean: mean of 6 donors
Text: (§1) For evaluating the effect of compound A on the production of chemokines relevant for the formation of germinal centers, PBMC were isolated from Buffy Coat (collected through Inter-Regionale Blutspende of the Swiss Red Cross) by standard Ficoll gradient centrifugation using Ficoll-Paque plus (GE healthcare #17-1440-03) in Leucosep tubes (Greiner Bio-one #227289). Cells were washed two times with PBS and then resuspended at 2.2×10^6/mL in RPMI 1640 medium supplemented with 10% FBS, Gentamycine (50 ug/ml), Insulin-Transferrin-Selenium and P-Mercaptoethanol (50 uM).
(§2) PBMC were dispensed to 48-well plates (Costar #3548) and incubated with pre-diluted compound A resulting in a dilution with a final concentration of 0.3, 1 or 3 uM. Control samples were pretreated with DMSO to obtain a final concentration of 0.03% DMSO. Samples were mixed thoroughly and incubated in a humified incubator at 37° C. for 1 h. Cells were thereafter stimulated by the addition of the TLR9 agonist ODN M362 (Invivogen, #tlrl-m362) at a final concentration of 30 ug/ml or anti-IgM-Dextran (Finabiosolution #0004) at a final concentration of 2 ug/ml. Control samples were left unstimulated. Samples were mixed thoroughly and incubated in a humified incubator at 37° C. for 24 h.
(§3) After the stimulation, culture supernatants were harvested and chemokines quantified by Bio-Plex Multiplex immunoassay (CXCL13; Bio Rad #171 BK12MR2) or MSD V-Plex assay (IP-10; Meso Scale Diagnostics) or according to the manufacturer's instructions.

Murine B cells = assay: Mouse B cell proliferation following BCR stimulation; format: cell-based; conditions: Mouse spleen, stimulus Anti-IgM, mean of at least two experiments
Procedure: Murine B cells were stimulated via BCR by anti-IgM antibody in the presence of titrated amounts of compounds as described in (Julius et al 1984) and proliferation was assessed by incorporation of radioactive ^3H-Thymidine.

B cells from Buffy Coat = assay: CXCL13-induced B cell migration (transwell); format: cell-based, human; conditions: for cell count (migrated B cells): mean of 4 wells
Procedure: PBMC were isolated from Buffy Coat as described above. Cells were washed two times with PBS and then resuspended at 5×10^7/mL in PBS containing 2% FBS and 1 mM EDTA. Further B cell purification was performed via depletion of non-B cells with an EasySep™ Human B Cell Enrichment Kit (STEMCELL Technologies #19054) according to the manufacture's instruction. In brief, 4×10^8 PBMCs in 8 ml isolation buffer were incubated with 400 ul of enrichment cocktail in a 14 mL round-bottom tube for 10 minutes at room temperature. PBMC were further incubated with 600 ul of magnetic particles for 5 minutes at room. For B cell isolation, the tube was placed into the magnet for 5 min and enriched B cells were collected in a fresh 14 ml tube. Cells were then washed and resuspended at 5×10^6/mL in RPMI 1640 medium supplemented with 10% FBS, Gentamycine (50 ug/ml), Insulin-Transferrin-Selenium and P-Mercaptoethanol (50 uM).
Isolated B cells were dispensed to 5 ml round-bottom tube (Costar #352054) and incubated with pre-diluted compound A resulting in a dilution with a final concentration of 10, 1, 0.1 or 0.01 uM. Control samples were pretreated with DMSO to obtain a final concentration of 0.1% DMSO. Samples were mixed thoroughly and incubated in a water bath at 37° C. for 30 minutes. Some 235 ul of CXCL13 (R&D Systems #801-CX) in a dilution with a final concentration of 100 nM was added to the wells of the 96-well transwell receiver plate (Costar #3387). Control wells were filled with 235 ul medium. The 5 um permeable support insert was added to the receiver plate and filled with 80 ul of pre-incubated B cells. Transwell plate was incubated in a humified incubator at 37° C. for 3 h. Permeable support insert was removed and cell number in receiver plate was assessed by flow cytometry.

[3] = test system: Human Peripheral Blood Mononuclear Cells (PBMC); assay: anti-IgM-Dextran-induced IP-10 production of human PBMC; format: cell-based; conditions: for IP-10 in culture supernatant: individual donors 1-6; for IP-10 in culture supernatant, mean: mean of 6 donors
Text: as §1, §2, §3

[4] = Homo sapiens, PBMC, Compound A 300 nM
[5] = Homo sapiens, PBMC, Compound A 1000 nM
[6] = Homo sapiens, PBMC, Compound A 3000 nM

Q: With `CCC(=O)N1CC[C@H](Nc2ncnc3c2CN(c2cnc(OC)c(C(F)(F)F)c2)CC3)C1` [Compound A, 1-{(S)-3-[6-(6-Methoxy-5-trifluoromethyl-pyridin-3-yl)-5,6,7,8-tetrahydro-pyrido[4,3-d]pyrimidin-4-ylamino]-pyrrolidin-1-yl}-propan-1-one] as the compound, how does the “CCL4 (MIP-1beta) in supernatant (in words)” value [1] read?
A: inhibits

Q: What about the “CXCL10 (IP-10) in supernatant (in words)” value [1] of the same compound?
A: inhibits

Q: And the “CXCL13 (BCA-1, BLC) in supernatant (in words)” value [1]?
A: inhibits

Q: What about the inhibition at 0.3 µM [2, 4] of the same compound?
A: 40%

Q: What about the inhibition at 1 µM [2, 5] of the same compound?
A: 51%

Q: What about the inhibition at 3 µM [2, 6] of the same compound?
A: 55%

Q: And the “CXCL13 in culture supernatant” value ([2]; Compound A 300 nM)?
A: 8 pg/ml (2×) and 3 pg/ml and 39 pg/ml and 113 pg/ml and 51 pg/ml

Q: And the “CXCL13 in culture supernatant, mean” value ([2]; Compound A 300 nM)?
A: 37 pg/mL

Q: What about the “CXCL13 in culture supernatant” value ([2]; Compound A 1000 nM) of the same compound?
A: 7 pg/ml and 3 pg/ml and 42 pg/ml (2×) and 84 pg/ml and 6 pg/ml

Q: What about the “CXCL13 in culture supernatant, mean” value ([2]; Compound A 1000 nM) of the same compound?
A: 31 pg/mL

Q: What about the “CXCL13 in culture supernatant” value ([2]; Compound A 3000 nM) of the same compound?
A: 5 pg/mL and 3 pg/mL and 29 pg/mL and 86 pg/mL and 41 pg/mL and 4 pg/mL

Q: And the “CXCL13 in culture supernatant, mean” value ([2]; Compound A 3000 nM)?
A: 28 pg/mL

Q: And the pIC50 (Murine B cells)?
A: 8.10

Q: What about the inhibition at 0.01 µM (B cells from Buffy Coat; Homo sapiens, B-cell, compound A 10 nM) of the same compound?
A: 13%

Q: And the inhibition at 0.1 µM (B cells from Buffy Coat; Homo sapiens, B-cell, compound A 100 nM)?
A: 39%

Q: What about the inhibition at 1 µM (B cells from Buffy Coat; Homo sapiens, B-cell, compound A 1000 nM) of the same compound?
A: 52%

Q: What about the inhibition at 10 µM (B cells from Buffy Coat; Homo sapiens, B-cell, compound A 10000 nM) of the same compound?
A: 79%

Q: And the “cell count (migrated B cells)” value (B cells from Buffy Coat; compound A 10 nM)?
A: 6165

Q: And the “cell count (migrated B cells)” value (B cells from Buffy Coat; compound A 100 nM)?
A: 4556

Q: And the “cell count (migrated B cells)” value (B cells from Buffy Coat; compound A 1000 nM)?
A: 3743

Q: What about the “cell count (migrated B cells)” value (B cells from Buffy Coat; compound A 10000 nM) of the same compound?
A: 2043

Q: And the “IP-10 in culture supernatant” value ([3]; Compound A 300 nM)?
A: 79 pg/mL and 32 pg/mL and 37 pg/mL and 1233 pg/mL and 52 pg/mL and 2764 pg/mL

Q: What about the “IP-10 in culture supernatant, mean” value ([3]; Compound A 300 nM) of the same compound?
A: 699 pg/mL

Q: And the “IP-10 in culture supernatant” value ([3]; Compound A 1000 nM)?
A: 71 pg/mL and 29 pg/mL and 42 pg/mL and 1010 pg/mL and 52 pg/mL and 1624 pg/mL

Q: What about the “IP-10 in culture supernatant, mean” value ([3]; Compound A 1000 nM) of the same compound?
A: 471 pg/mL

Q: And the “IP-10 in culture supernatant” value ([3]; Compound A 3000 nM)?
A: 93 pg/mL and 27 pg/mL and 34 pg/mL and 899 pg/mL and 59 pg/mL and 715 pg/mL

Q: And the “IP-10 in culture supernatant, mean” value ([3]; Compound A 3000 nM)?
A: 305 pg/mL

Q: What about the inhibition at 0.3 µM [3, 4] of the same compound?
A: 12%

Q: What about the inhibition at 1 µM [3, 5] of the same compound?
A: 41%

Q: What about the inhibition at 3 µM [3, 6] of the same compound?
A: 62%

Source: patent publication US20190038628A1, “USE OF INHIBITORS OF THE ACTIVITY OR FUNCTION OF PI3K FOR THE TREATMENT OF PRIMARY SJOGREN'S SYNDROME” (Novartis AG, priority 2016, published 2019)
